From PubChem BioAssay AID248 (DTP/NCI, 2004)
Where “and” joins values, the source holds several entries; their conditions need not be identical. Equal entries are not always repeated. Toxic doses and inconclusive results are not listed. Cut-off read from the data, not from the text of the source: active = T/C of 150% or more; inactive = T/C below 125%.

Tested on: L1210 leukemia ip in BDF1 mice, survival T/C
Test: NCI In Vivo Anticancer Drug Screen. Data for tumor model L1210 Leukemia (intraperitoneal) in B6D2F1 (BDF1) mice
Details: endpoint: mean survival time, higher = longer survival
Method in brief: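 In this screen, tumor-bearing mice given compound are compared to those given vehicle, and their survival values are reported as a treated-to-control quotient.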

[1] = dose: 100.0 mg/kg/injection, schedule: Q01DX009 (ip), vehicle: Klucel (hydroxypropylcellulose) (HPC)
[2] = dose: 100.0 mg/kg/injection, schedule: Q04DX003 (ip), vehicle: Klucel (hydroxypropylcellulose) (HPC)
[3] = dose: 200.0 mg/kg/injection, schedule: Q01DX009 (ip), vehicle: Klucel (hydroxypropylcellulose) (HPC)
[4] = dose: 200.0 mg/kg/injection, schedule: Q04DX003 (ip), vehicle: Klucel (hydroxypropylcellulose) (HPC)
[5] = dose: 400.0 mg/kg/injection, schedule: Q01DX009 (ip), vehicle: Klucel (hydroxypropylcellulose) (HPC)
[6] = dose: 400.0 mg/kg/injection, schedule: Q04DX003 (ip), vehicle: Klucel (hydroxypropylcellulose) (HPC)
[7] = dose: 100.0 mg/kg/injection, schedule: Q04DX002 (ip), vehicle: Klucel (hydroxypropylcellulose) (HPC)
[8] = dose: 200.0 mg/kg/injection, schedule: Q04DX002 (ip), vehicle: Klucel (hydroxypropylcellulose) (HPC)
[9] = dose: 400.0 mg/kg/injection, schedule: Q04DX002 (ip), vehicle: Klucel (hydroxypropylcellulose) (HPC)
[10] = dose: 100.0 mg/kg/injection, schedule: Q04DX003 (ip), vehicle: saline with Tween-80
[11] = dose: 200.0 mg/kg/injection, schedule: Q04DX003 (ip), vehicle: saline with Tween-80
[12] = dose: 100.0 mg/kg/injection, schedule: Q01DX001 (ip), vehicle: saline
[13] = dose: 100.0 mg/kg/injection, schedule: Q01DX001 (ip), vehicle: saline with Tween-80
[14] = dose: 100.0 mg/kg/injection, schedule: Q04DX002 (ip), vehicle: saline with Tween-80
[15] = dose: 200.0 mg/kg/injection, schedule: Q01DX001 (ip), vehicle: saline with Tween-80
[16] = dose: 200.0 mg/kg/injection, schedule: Q04DX002 (ip), vehicle: saline with Tween-80
[17] = dose: 100.0 mg/kg/injection, schedule: Q01DX001 (ip), vehicle: Klucel (hydroxypropylcellulose) (HPC)
[18] = dose: 200.0 mg/kg/injection, schedule: Q01DX001 (ip), vehicle: Klucel (hydroxypropylcellulose) (HPC)
[19] = dose: 400.0 mg/kg/injection, schedule: Q01DX001 (ip), vehicle: Klucel (hydroxypropylcellulose) (HPC)
[20] = dose: 50.0 mg/kg/injection, schedule: Q04DX002 (ip), vehicle: Klucel (hydroxypropylcellulose) (HPC)
[21] = dose: 200.0 mg/kg/injection, schedule: Q01DX001 (ip), vehicle: saline
[22] = dose: 50.0 mg/kg/injection, schedule: Q01DX001 (ip), vehicle: carboxymethylcellulose (CMC)
[23] = dose: 100.0 mg/kg/injection, schedule: Q01DX001 (ip), vehicle: carboxymethylcellulose (CMC)
[24] = dose: 200.0 mg/kg/injection, schedule: Q01DX001 (ip), vehicle: carboxymethylcellulose (CMC)

Measured: T/C

Cc1c(N=O)c(=O)n(-c2ccccc2)n1C
inactive: [1] 94 % of control | [2] 95 % of control | [3] 97 % of control | [4] 95 % of control | [5] 110 % of control | [6] 98 % of control

c1ccc(-c2ccc(-c3ccccc3)o2)cc1
inactive: [7] 106 % of control | [8] 95 % of control | [9] 106 % of control

CCC(C)C(CO)c1ccccc1 (stereo not given)
inactive: [10] 93 % of control | [11] 91 % of control

Cc1cc(C)c(CCl)c(C)c1CCl
inactive: [12] 119 % of control

Cn1cnnc1N
inactive: dose: 100.0 mg/kg/injection, schedule: Q04DX003 (ip), vehicle: saline 97 % of control | dose: 200.0 mg/kg/injection, schedule: Q04DX003 (ip), vehicle: saline 101 % of control | dose: 400.0 mg/kg/injection, schedule: Q04DX003 (ip), vehicle: saline 103 % of control

CCCC(C)NCCOC(=O)c1ccc(N)cc1 (stereo not given)
inactive: dose: 75.0 mg/kg/injection, schedule: Q01DX001 (ip), vehicle: saline 95 % of control

CCCCCCCCCCCCC(=O)N(CC)CC
inactive: [7] 87 % of control | [8] 94 % of control | [9] 94 % of control

CNC(=O)Oc1ccc(-c2ccccc2)cc1Cl
inactive: dose: 25.0 mg/kg/injection, schedule: Q01DX009 (ip), vehicle: saline with Tween-80 103 % of control and 106 % of control | dose: 50.0 mg/kg/injection, schedule: Q01DX009 (ip), vehicle: saline with Tween-80 94 % of control and 111 % of control | [13] 101 % of control | [14] 93 % of control and 101 % of control (2×) | [10] 98 % of control | [15] 93 % of control | dose: 200.0 mg/kg/injection, schedule: Q01DX009 (ip), vehicle: saline with Tween-80 94 % of control | [16] 96 % of control and 97 % of control and 100 % of control | [11] 95 % of control | dose: 400.0 mg/kg/injection, schedule: Q01DX001 (ip), vehicle: saline with Tween-80 104 % of control | dose: 400.0 mg/kg/injection, schedule: Q04DX002 (ip), vehicle: saline with Tween-80 103 % of control and 107 % of control and 113 % of control | dose: 400.0 mg/kg/injection, schedule: Q04DX003 (ip), vehicle: saline with Tween-80 98 % of control

COc1cc(NC(=O)Nc2ccc(Cl)cc2[N+](=O)[O-])c(OC)cc1Cl
inactive: [1] 94 % of control | [3] 94 % of control | [5] 89 % of control

NC1=NCN(c2ccc(Oc3ccc(S(=O)(=O)F)cc3)cc2)C(N)=N1
inactive: [17] 93 % of control | [18] 101 % of control | [19] 104 % of control

CC(=O)NC(CSSCC(N)C(=O)O)C(=O)O (stereo not given) (tested in a mixture with another compound)
inactive: dose: 12.5 mg/kg/injection, schedule: Q04DX002 (ip), vehicle: DMSO 93 % of control | dose: 25.0 mg/kg/injection, schedule: Q04DX002 (ip), vehicle: DMSO 103 % of control | dose: 50.0 mg/kg/injection, schedule: Q04DX002 (ip), vehicle: DMSO 93 % of control

c1ccc(-c2c(-c3ccc4c(c3)OCO4)c(-c3ccc4c(c3)OCO4)c(-c3ccccc3)c3ccccc23)cc1
inactive: [13] 92 % of control | [15] 100 % of control

O=C(Nc1ccc(Cl)cc1)Oc1c(Cl)cc(S(=O)(=O)F)cc1Cl
inactive: dose: 25.0 mg/kg/injection, schedule: Q04DX002 (ip), vehicle: Klucel (hydroxypropylcellulose) (HPC) 94 % of control | dose: 50.0 mg/kg/injection, schedule: Q01DX009 (ip), vehicle: Klucel (hydroxypropylcellulose) (HPC) 97 % of control | [20] 91 % of control | [1] 97 % of control | [7] 99 % of control and 91 % of control

Cc1ccc(O)c(N=O)c1.[Cu+2]
inactive: dose: 50.0 mg/kg/injection, schedule: Q01DX001 (ip), vehicle: saline 97 % of control | [12] 103 % of control | [21] 103 % of control

COc1ccc(C2OCC(C)([N+](=O)[O-])CO2)cc1 (stereo not given)
inactive: dose: 50.0 mg/kg/injection, schedule: Q01DX001 (ip), vehicle: Klucel (hydroxypropylcellulose) (HPC) 94 % of control | [20] 103 % of control | [17] 96 % of control | [7] 96 % of control and 102 % of control | [18] 98 % of control | [8] 96 % of control and 100 % of control | [19] 98 % of control | [9] 99 % of control and 121 % of control

O=C(O)/C(F)=C/c1ccccc1
inactive: [22] 111 % of control | [23] 103 % of control

CC(C)(Br)C(=O)c1ccc(-c2ccccc2)cc1
inactive: dose: 25.0 mg/kg/injection, schedule: Q01DX009 (ip), vehicle: water 101 % of control | dose: 50.0 mg/kg/injection, schedule: Q01DX009 (ip), vehicle: water 101 % of control | [1] 89 % of control | dose: 100.0 mg/kg/injection, schedule: Q01DX009 (ip), vehicle: water 98 % of control | [2] 100 % of control | [3] 87 % of control | dose: 200.0 mg/kg/injection, schedule: Q01DX009 (ip), vehicle: water 95 % of control | [4] 94 % of control | [5] 92 % of control | dose: 400.0 mg/kg/injection, schedule: Q01DX009 (ip), vehicle: water 92 % of control | [6] 91 % of control

CC(C)CCCC(C)C1CCC2C3CC4C(F)(F)C45CC4(CCC5(C)C3CCC12C)OCCO4 (stereo not given)
inactive: dose: 100.0 mg/kg/injection, schedule: Q04DX002 (ip), vehicle: other 101 % of control | dose: 200.0 mg/kg/injection, schedule: Q04DX002 (ip), vehicle: other 90 % of control | dose: 400.0 mg/kg/injection, schedule: Q04DX002 (ip), vehicle: other 93 % of control

CCCOCCOCCOC(C)Oc1ccc(OC)cc1 (stereo not given)
inactive: dose: 100.0 mg/kg/injection, schedule: Q04DX002 (ip), vehicle: saline 92 % of control | dose: 200.0 mg/kg/injection, schedule: Q04DX002 (ip), vehicle: saline 101 % of control

C1CC2CCCC3C4CCCC5CCCC(C(C1)C23)C54 (stereo not given)
inactive: [12] 94 % of control | [21] 100 % of control | dose: 400.0 mg/kg/injection, schedule: Q01DX001 (ip), vehicle: saline 97 % of control

O=C1CCCCC1c1sc([N+](=O)[O-])cc1[N+](=O)[O-] (stereo not given)
inactive: [14] 93 % of control | [16] 104 % of control

COc1c2ccoc2nc2ccc3c(c12)C=CC(C)(C)O3
inactive: [22] 98 % of control | [23] 104 % of control | [24] 104 % of control | dose: 400.0 mg/kg/injection, schedule: Q01DX001 (ip), vehicle: carboxymethylcellulose (CMC) 98 % of control

CCCCCCCCCCCCCSCCCCCCCCCCCCSCCCCCCCCCCCC
inactive: [17] 89 % of control | [18] 88 % of control | [19] 89 % of control

CC(CC(CCC(=O)O)(c1ccccc1)c1ccccc1)N(C)C (stereo not given)
inactive: [23] 105 % of control | [24] 97 % of control
